Laboratory results reported in ChEMBL document CHEMBL3525977, “Differential impact of P-glycoprotein (ABCB1) and breast cancer resistance protein (ABCG2) on axitinib brain accumulation and oral plasma pharmacokinetics” (Drug Metab Dispos, 2011).

Assays:
[1] = Drug level in brain of Abcb1a/1b;Abcg2 (-/-) FVB mouse at 10 mg/kg, po after 4 hrs by liquid chromatography-tandem mass spectrometry; format: ADME, organism-based; parameters: dose 10 mg/kg, route oral; conditions: read-out: Drug uptake
[2] = Drug level in brain of Abcb1a/1b (-/-) FVB mouse at 10 mg/kg, po after 4 hrs by liquid chromatography-tandem mass spectrometry; format: ADME, organism-based; parameters: dose 10 mg/kg, route oral; conditions: read-out: Drug uptake
[3] = Drug level in brain of Abcg2 (-/-) FVB mouse at 10 mg/kg, po after 4 hrs by liquid chromatography-tandem mass spectrometry; format: ADME, organism-based; parameters: dose 10 mg/kg, route oral; conditions: read-out: Drug uptake
[4] = Drug level in brain of FVB mouse at 10 mg/kg, po after 4 hrs by liquid chromatography-tandem mass spectrometry; format: ADME, organism-based; parameters: dose 10 mg/kg, route oral; conditions: read-out: Drug uptake
[5] = AUC (0 to 4 hrs) in Abcb1a/1b;Abcg2 (-/-) FVB mouse plasma at 10 mg/kg, po by liquid chromatography-tandem mass spectrometry; format: ADME, organism-based; parameters: time < 4 hr, dose 10 mg/kg, route oral
[6] = AUC (0 to 4 hrs) in Abcb1a/1b (-/-) FVB mouse plasma at 10 mg/kg, po by liquid chromatography-tandem mass spectrometry; format: ADME, organism-based; parameters: time < 4 hr, dose 10 mg/kg, route oral
[7] = AUC (0 to 4 hrs) in FVB mouse plasma at 10 mg/kg, po by liquid chromatography-tandem mass spectrometry; format: ADME, organism-based; parameters: time < 4 hr, dose 10 mg/kg, route oral
[8] = AUC (0 to 4 hrs) in Abcg2 (-/-) FVB mouse plasma at 10 mg/kg, po by liquid chromatography-tandem mass spectrometry; format: ADME, organism-based; parameters: time < 4 hr, dose 10 mg/kg, route oral
Brain [9] = test: Drug level in brain of Abcg2 (-/-) FVB mouse at 10 mg/kg, po after 1 hr by liquid chromatography-tandem mass spectrometry relative to wild type FVB mouse; format: ADME, organism-based; parameters: dose 10 mg/kg, route oral; conditions: in vivo
Brain [10] = test: Drug level in brain of Abcb1a/1b (-/-) FVB mouse at 10 mg/kg, po after 1 hr by liquid chromatography-tandem mass spectrometry relative to wild type FVB mouse; format: ADME, organism-based; parameters: dose 10 mg/kg, route oral; conditions: in vivo
Brain [11] = test: Drug level in brain of Abcb1a/1b;Abcg2 (-/-) FVB mouse at 10 mg/kg, po after 1 hr by liquid chromatography-tandem mass spectrometry relative to wild type FVB mouse; format: ADME, organism-based; parameters: dose 10 mg/kg, route oral; conditions: in vivo
Brain [12] = test: Drug level in brain of Abcg2 (-/-) FVB mouse at 10 mg/kg, po after 4 hrs by liquid chromatography-tandem mass spectrometry relative to wild type FVB mouse; format: ADME, organism-based; parameters: dose 10 mg/kg, route oral; conditions: in vivo
Brain [13] = test: Drug level in brain of Abcb1a/1b (-/-) FVB mouse at 10 mg/kg, po after 4 hrs by liquid chromatography-tandem mass spectrometry relative to wild type FVB mouse; format: ADME, organism-based; parameters: dose 10 mg/kg, route oral; conditions: in vivo
Brain [14] = test: Drug level in brain of Abcb1a/1b;Abcg2 (-/-) FVB mouse at 10 mg/kg, po after 4 hrs by liquid chromatography-tandem mass spectrometry relative to wild type FVB mouse; format: ADME, organism-based; parameters: dose 10 mg/kg, route oral; conditions: in vivo
[15] = Drug transport in MDCK2 cells at 1 uM after 1 to 4 hrs in presence of 5 uM ABCB1 inhibitor zosuquidar; format: ADME, cell-based, Canis lupus familiaris; conditions: dog, mdck-ii
[16] = Efflux ratio in wild type MDCK2 cells at 1 uM after 1 to 4 hrs; format: ADME, cell-based, Canis lupus familiaris, MDCK-II; conditions: dog, MDCK
[17] = Drug transport in MDCK2 cells at 1 uM after 1 to 4 hrs in presence of 5 uM ABCB1/ABCG2 inhibitor elacridar; format: ADME, cell-based, Canis lupus familiaris; conditions: dog, mdck-ii
ABCB1 = ABCB1 (Homo sapiens, UniProt P08183); test: Drug transport in MDCK2 cells expressing human ABCB1 assessed as transporter-mediated efflux ratio at 1 uM after 1 to 4 hrs; format: ADME, cell-based; conditions: MDCK-MDR1
Sequence of ABCB1 (P08183 whole entry): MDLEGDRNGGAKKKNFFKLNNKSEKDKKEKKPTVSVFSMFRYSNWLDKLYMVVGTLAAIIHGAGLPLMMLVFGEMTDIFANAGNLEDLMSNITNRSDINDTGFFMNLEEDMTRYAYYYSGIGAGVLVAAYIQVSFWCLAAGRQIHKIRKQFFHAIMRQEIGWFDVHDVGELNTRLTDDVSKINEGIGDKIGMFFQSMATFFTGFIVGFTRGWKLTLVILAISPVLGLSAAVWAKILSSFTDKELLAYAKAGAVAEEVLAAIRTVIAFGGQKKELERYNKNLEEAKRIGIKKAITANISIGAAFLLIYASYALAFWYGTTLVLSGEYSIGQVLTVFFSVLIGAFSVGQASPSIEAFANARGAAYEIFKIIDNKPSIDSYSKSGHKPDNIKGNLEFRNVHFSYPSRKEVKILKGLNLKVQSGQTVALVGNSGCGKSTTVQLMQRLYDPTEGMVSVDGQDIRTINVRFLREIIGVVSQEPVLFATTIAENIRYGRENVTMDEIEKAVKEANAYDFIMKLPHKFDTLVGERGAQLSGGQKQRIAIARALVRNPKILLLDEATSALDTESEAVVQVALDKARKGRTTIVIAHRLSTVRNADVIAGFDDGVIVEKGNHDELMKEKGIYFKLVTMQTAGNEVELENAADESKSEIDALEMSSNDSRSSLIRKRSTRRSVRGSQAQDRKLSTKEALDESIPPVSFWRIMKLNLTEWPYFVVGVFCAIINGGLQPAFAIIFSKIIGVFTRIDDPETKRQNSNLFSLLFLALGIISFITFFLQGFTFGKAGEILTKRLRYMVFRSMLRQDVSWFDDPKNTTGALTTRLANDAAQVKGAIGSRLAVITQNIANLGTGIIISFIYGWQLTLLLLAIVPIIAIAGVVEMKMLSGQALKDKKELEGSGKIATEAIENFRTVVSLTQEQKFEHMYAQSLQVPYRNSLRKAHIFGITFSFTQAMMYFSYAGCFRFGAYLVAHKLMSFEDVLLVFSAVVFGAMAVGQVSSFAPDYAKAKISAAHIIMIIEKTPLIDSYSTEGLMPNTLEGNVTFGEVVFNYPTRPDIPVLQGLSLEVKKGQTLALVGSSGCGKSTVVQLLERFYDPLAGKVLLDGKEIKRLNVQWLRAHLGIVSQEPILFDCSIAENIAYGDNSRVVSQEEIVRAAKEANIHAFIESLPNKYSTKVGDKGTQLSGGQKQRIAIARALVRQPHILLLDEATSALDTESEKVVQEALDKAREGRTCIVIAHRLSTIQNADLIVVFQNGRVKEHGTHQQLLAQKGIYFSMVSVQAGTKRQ

ABCG2 = molecular target: T1, ABCG2 (Homo sapiens, UniProt Q9UNQ0); test: Drug transport in MDCK2 cells expressing human ABCG2 assessed as transporter-mediated efflux ratio at 1 uM after 1 to 4 hrs; format: ADME, cell-based
T1 sequence (Q9UNQ0 whole entry): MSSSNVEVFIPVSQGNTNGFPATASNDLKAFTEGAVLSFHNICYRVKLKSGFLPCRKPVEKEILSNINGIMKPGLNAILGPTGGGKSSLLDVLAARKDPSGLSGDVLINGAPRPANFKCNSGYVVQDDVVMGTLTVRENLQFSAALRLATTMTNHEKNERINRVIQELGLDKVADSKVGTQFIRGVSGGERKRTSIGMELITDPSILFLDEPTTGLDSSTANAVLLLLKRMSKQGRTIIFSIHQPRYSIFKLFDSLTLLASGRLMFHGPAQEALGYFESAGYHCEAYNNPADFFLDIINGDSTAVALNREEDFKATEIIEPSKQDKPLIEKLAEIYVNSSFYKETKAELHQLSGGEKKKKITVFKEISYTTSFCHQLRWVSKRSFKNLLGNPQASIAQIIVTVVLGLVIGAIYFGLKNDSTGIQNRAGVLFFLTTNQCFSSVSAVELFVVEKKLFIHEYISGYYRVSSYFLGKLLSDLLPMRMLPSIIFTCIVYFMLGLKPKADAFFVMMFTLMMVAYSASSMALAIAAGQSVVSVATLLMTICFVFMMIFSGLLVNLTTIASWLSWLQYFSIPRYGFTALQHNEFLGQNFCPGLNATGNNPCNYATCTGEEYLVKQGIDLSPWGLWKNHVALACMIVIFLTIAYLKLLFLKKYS

[18] = molecular target: T2, Broad substrate specificity ATP-binding cassette transporter ABCG2 (Mus musculus, UniProt Q7TMS5); test: Drug transport in MDCK2 cells expressing mouse ABCG2 assessed as transporter-mediated efflux ratio at 1 uM after 1 to 4 hrs; format: ADME, cell-based; conditions: mdck2, 1 µM
T2 sequence (Q7TMS5 whole entry): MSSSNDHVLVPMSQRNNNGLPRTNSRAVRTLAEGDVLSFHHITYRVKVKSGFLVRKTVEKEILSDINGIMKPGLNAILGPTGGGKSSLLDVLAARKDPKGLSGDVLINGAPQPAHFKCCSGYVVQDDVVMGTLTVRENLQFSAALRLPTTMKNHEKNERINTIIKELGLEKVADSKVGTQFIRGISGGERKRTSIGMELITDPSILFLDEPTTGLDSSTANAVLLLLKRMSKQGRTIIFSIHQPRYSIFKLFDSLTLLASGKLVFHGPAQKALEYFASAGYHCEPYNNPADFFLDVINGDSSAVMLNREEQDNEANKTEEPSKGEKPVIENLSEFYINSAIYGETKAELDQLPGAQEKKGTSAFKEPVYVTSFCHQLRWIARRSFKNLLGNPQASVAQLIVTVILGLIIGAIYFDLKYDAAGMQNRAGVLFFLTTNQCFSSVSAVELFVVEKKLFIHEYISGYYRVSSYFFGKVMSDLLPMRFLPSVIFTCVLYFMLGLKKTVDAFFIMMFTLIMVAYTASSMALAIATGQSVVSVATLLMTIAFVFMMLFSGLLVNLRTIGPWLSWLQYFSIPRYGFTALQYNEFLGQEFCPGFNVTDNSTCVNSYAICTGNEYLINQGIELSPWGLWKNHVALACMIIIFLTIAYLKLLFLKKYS

[19] = AUC (0 to 1 hr) in FVB mouse plasma at 10 mg/kg, po by liquid chromatography-tandem mass spectrometry; format: ADME, organism-based; parameters: time < 1 hr, dose 10 mg/kg, route oral
[20] = AUC (0 to 1 hr) in Abcg2 (-/-) FVB mouse plasma at 10 mg/kg, po by liquid chromatography-tandem mass spectrometry; format: ADME, organism-based; parameters: time < 1 hr, dose 10 mg/kg, route oral
[21] = AUC (0 to 1 hr) in Abcb1a/1b (-/-) FVB mouse plasma at 10 mg/kg, po by liquid chromatography-tandem mass spectrometry; format: ADME, organism-based; parameters: time < 1 hr, dose 10 mg/kg, route oral
[22] = AUC (0 to 1 hr) in Abcb1a/1b;Abcg2 (-/-) FVB mouse plasma at 10 mg/kg, po by liquid chromatography-tandem mass spectrometry; format: ADME, organism-based; parameters: time < 1 hr, dose 10 mg/kg, route oral
[23] = Drug level in brain of Abcg2 (-/-) FVB mouse at 10 mg/kg, po after 1 hr by liquid chromatography-tandem mass spectrometry; format: ADME, organism-based; parameters: dose 10 mg/kg, route oral; conditions: read-out: Drug uptake
[24] = Drug level in brain of Abcb1a/1b (-/-) FVB mouse at 10 mg/kg, po after 1 hr by liquid chromatography-tandem mass spectrometry; format: ADME, organism-based; parameters: dose 10 mg/kg, route oral; conditions: read-out: Drug uptake
[25] = Drug level in brain of Abcb1a/1b;Abcg2 (-/-) FVB mouse at 10 mg/kg, po after 1 hr by liquid chromatography-tandem mass spectrometry; format: ADME, organism-based; parameters: dose 10 mg/kg, route oral; conditions: read-out: Drug uptake
[26] = Drug level in brain of FVB mouse at 10 mg/kg, po after 1 hr by liquid chromatography-tandem mass spectrometry; format: ADME, organism-based; parameters: dose 10 mg/kg, route oral; conditions: read-out: Drug uptake

CNC(=O)c1ccccc1Sc1ccc2c(/C=C/c3ccccn3)n[nH]c2c1 [AXITINIB]
concentration at 4 h [1]: 250 ng/g
concentration at 4 h [2]: 47 ng/g
concentration at 4 h [3]: 7 ng/g
concentration at 4 h [4]: 6 ng/g
AUC(0-t) at 4 h [5]: 4950 ng·h/mL
AUC(0-t) at 4 h [6]: 3950 ng·h/mL
AUC(0-t) at 4 h [7]: 2680 ng·h/mL
AUC(0-t) at 4 h [8]: 4670 ng·h/mL
Ratio (Brain [9]): 0.8
Ratio (Brain [10]): 6.3
Ratio (Brain [11]): 19.6
Ratio (Brain [12]): 1.1
Ratio (Brain [13]): 7.9
Ratio (Brain [14]): 42.4
Drug transport [15]: Not Active
efflux ratio at 1 µM [16]: 1.4
Drug transport [17]: Not Active
efflux ratio at 1 µM (ABCB1): 5.3
efflux ratio at 1 µM (ABCG2): 1.3
Ratio [18]: 3.4
AUC(0-t) at 1 h [19]: 1090 ng·h/mL
AUC(0-t) at 1 h [20]: 1760 ng·h/mL
AUC(0-t) at 1 h [21]: 950 ng·h/mL
AUC(0-t) at 1 h [22]: 1400 ng·h/mL
concentration at 1 h [23]: 80 ng/g
concentration at 1 h [24]: 640 ng/g
concentration at 1 h [25]: 1980 ng/g
concentration at 1 h [26]: 100 ng/g
